From PMC3498832, “Mechanistic and structural basis for inhibition of thymidylate synthase ThyX” (Open Biology, 2012)
Like-named read-outs stand apart in the source and are kept apart here. Marks after values point to notes of the source that are not given here.

Columns and labels:
[1] = biological target: T1, PBCV-1 ThyX (Paramecium bursaria Chlorella virus 1, UniProt O41156); assay: NADPH oxidation assay of ThyX activity (decrease of A340); type: biochemical, Paramecium bursaria chlorella virus (PBCV-1)
T1 construct: made in house; host or cells: E. coli BL21
T1 sequence (O41156 whole entry): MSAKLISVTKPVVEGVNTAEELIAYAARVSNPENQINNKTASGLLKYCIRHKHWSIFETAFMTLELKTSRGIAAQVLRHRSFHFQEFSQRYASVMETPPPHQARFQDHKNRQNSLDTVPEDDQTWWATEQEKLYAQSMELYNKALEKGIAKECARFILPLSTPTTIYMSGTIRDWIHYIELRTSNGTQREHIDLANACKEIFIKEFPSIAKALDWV

[2] = biological target: T1, PBCV-1 ThyX; assay: 'deprotonation' activity (tritium release assay from [5-3H]dUMP); type: biochemical, Paramecium bursaria chlorella virus (PBCV-1); conditions: compound 20 µM
[3] = biological target: T1, PBCV-1 ThyX; assay: C8-C1 induced quenching of FAD fluorescence; type: binding; conditions: authors' unpublished data
Procedure: We stress that the total PBCV-1 ThyX concentration used in these assays was 10 μM.

[4] = biological target: T1, PBCV-1 ThyX; assay: ThyX assay under anaerobic conditions (NADPH oxidation at 340 nm, FAD reduction at 450 nm); type: biochemical, Paramecium bursaria chlorella virus (PBCV-1); conditions: 100 μM dUMP or inhibitor, 400 μM NADPH, 77 μM ThyX bound FAD
Procedure: ThyX assays (100 μl) under anaerobic conditions contained 77 μM of PBCV-1 ThyX bound FAD in 300 mM NaCl, 1 mM MgCl2, 10 per cent glycerol (m/v) and 50 mM HEPES, pH 8.0. Samples were made anaerobic by repeatedly degassing with argon. Traces of oxygen were removed using the glucose oxidase system (60 units of glucose oxidase and catalase in the presence of 10 mM glucose). Where indicated, 100 μM dUMP, 100 μM inhibitor C8-C1 and 400 μM NADPH were added using an air-tight syringe. NADPH oxidation and FAD reduction were followed spectroscopically (optical path length 1 mm) at 340 and 450 nm, respectively.

[5] = tested on: E. coli FE010 carrying plasmid overexpressing PBCV-1 thyX; assay: Growth inhibition with IPTG-induced overexpression of PBCV-1 ThyX (selectivity factor, ratio of CFUs)
Procedure: Escherichia coli MG1655 (wild-type, thyA^+ tdk^+) and FE010 [ΔthyA::PBCV-1 thyX tdk^+] [26] were grown at 37°C either in thymidine-containing LB medium or thymidine-free M9 minimal medium supplemented with 0.1 mM CaCl2, 2 mM MgSO4 and 0.2 per cent casamino acids (Difco). IPTG-induced overexpression of target protein PBCV-1 ThyX was used to test titration of inhibitor in the bacterial cell. When necessary, thymidine (40 µg ml^−1) and kanamycin (40 µg ml^−1) were added to the growth medium. The cells were then harvested and washed two times with M9 medium to remove the remaining thymidine. The cells were diluted to an OD600 of approximately 0.1 using M9 medium and 1 ml of cell suspension was transferred to 24-well microplates (Nunc). Compounds were dissolved in DMSO and were added at indicated concentrations. No cells and DMSO-only controls were included for each medium composition. The plates were closed with plastic lids and incubated at 37°C with shaking at 160 r.p.m. […] Colony-forming units (CFU) per millilitre for each growth condition were determined from three independent experiments.
The values reported are means of three individual experiments. Hundred per cent refers to cell viability, measured as CFU, in the absence of inhibitor. […]

[6] = biological target: T2, human thymidylate synthase (Homo sapiens, UniProt P04818); assay: Human thymidylate synthase activity; type: biochemical; conditions: data not shown
T2 construct: made in house; host or cells: E. coli BL21
T2 sequence (P04818 whole entry): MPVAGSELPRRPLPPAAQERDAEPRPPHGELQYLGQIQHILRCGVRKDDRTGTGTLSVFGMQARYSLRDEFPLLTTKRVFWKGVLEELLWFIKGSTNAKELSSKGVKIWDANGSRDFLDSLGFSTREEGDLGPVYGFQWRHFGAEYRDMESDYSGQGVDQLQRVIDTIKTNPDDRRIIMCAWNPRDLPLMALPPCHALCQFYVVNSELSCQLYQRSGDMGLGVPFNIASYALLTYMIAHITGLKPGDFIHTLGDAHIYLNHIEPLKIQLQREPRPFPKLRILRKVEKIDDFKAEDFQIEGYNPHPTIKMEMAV

[7] = biological target: T3, H. pylori ThyX (Helicobacter pylori, UniProt O26061); type: biochemical
T3 construct: made in house; host or cells: E. coli BL21
T3 sequence (O26061 1-208): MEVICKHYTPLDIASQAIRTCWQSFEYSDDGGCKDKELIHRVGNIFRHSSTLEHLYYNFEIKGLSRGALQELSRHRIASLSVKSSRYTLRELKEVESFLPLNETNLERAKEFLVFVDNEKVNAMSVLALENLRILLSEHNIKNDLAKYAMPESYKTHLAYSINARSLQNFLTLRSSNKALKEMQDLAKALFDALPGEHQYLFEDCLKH

[8] = tested on: C. trachomatis ThyX; assay: ThyX activity with isolated C. trachomatis ThyX; type: biochemical, Chlamydia trachomatis
[9] = biological target: T4, M. tuberculosis ThyX (Mycobacterium tuberculosis, UniProt P9WG57); type: biochemical
T4 construct: made in house; host or cells: E. coli BL21
T4 sequence (P9WG57 whole entry): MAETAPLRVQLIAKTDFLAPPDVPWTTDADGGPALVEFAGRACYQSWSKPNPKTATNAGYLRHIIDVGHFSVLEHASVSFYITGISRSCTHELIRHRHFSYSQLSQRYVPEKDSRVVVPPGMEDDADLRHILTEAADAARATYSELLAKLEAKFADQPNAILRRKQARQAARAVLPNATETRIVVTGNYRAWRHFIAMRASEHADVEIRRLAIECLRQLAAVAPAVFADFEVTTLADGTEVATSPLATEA

[10] = tested on: E. coli MG1655 (wild-type, thyA+ tdk+); assay: Growth inhibition (CFU) of isogenic wild-type E. coli; conditions: Escherichia coli, MG1655, 24 h, read-out: growth inhibition
Procedure: (§1) Escherichia coli MG1655 (wild-type, thyA^+ tdk^+) and FE010 [ΔthyA::PBCV-1 thyX tdk^+] [26] were grown at 37°C either in thymidine-containing LB medium or thymidine-free M9 minimal medium supplemented with 0.1 mM CaCl2, 2 mM MgSO4 and 0.2 per cent casamino acids (Difco). IPTG-induced overexpression of target protein PBCV-1 ThyX was used to test titration of inhibitor in the bacterial cell. When necessary, thymidine (40 µg ml^−1) and kanamycin (40 µg ml^−1) were added to the growth medium. The cells were then harvested and washed two times with M9 medium to remove the remaining thymidine. The cells were diluted to an OD600 of approximately 0.1 using M9 medium and 1 ml of cell suspension was transferred to 24-well microplates (Nunc). Compounds were dissolved in DMSO and were added at indicated concentrations. No cells and DMSO-only controls were included for each medium composition. The plates were closed with plastic lids and incubated at 37°C with shaking at 160 r.p.m. After 24 h of incubation, 100 µl of 10-fold serial dilutions were plated onto LB plates or LB plates supplemented with kanamycin (40 µg ml^−1) when appropriate. Colonies were enumerated after overnight incubation at 37°C. Colony-forming units (CFU) per millilitre for each growth condition were determined from three independent experiments.

[11] = tested on: E. coli FE010 (ΔthyA::PBCV-1 thyX tdk+); assay: Growth inhibition (CFU) of genetically modified E. coli dependent on thyX
Procedure: as §1

[12] = biological target: T1, PBCV-1 ThyX; design: method as in PMID 15471872; conditions: cited from earlier work
[13] = tested on: Thermotoga maritima ThyX; conditions: T. maritima ThyX; no reference given; cited from earlier work
[14] = 10 µM total PBCV-1 ThyX, 5 µM dUMP, 200 µM NADPH, read-out: IC50 (µM) NADPH oxidation

SMILES: O=C(CC1=C(O)C(=O)c2ccccc2C1=O)c1ccccc1 [E11-C1, 2-hydroxy-3-(2-oxo-2-phenylethyl)-1,4-naphthoquinone]
- IC50 [1, 14]: 11 µM
- inhibition at 20 µM [2]: 36 ± 5%

SMILES: COc1ccc(CC2=C(O)C(=O)c3ccccc3C2=O)cc1 [C8-C1, 2-hydroxy-3-(4-methoxybenzyl)-1,4-naphthoquinone]
- IC50 [1]: 4.5 µM
- inhibition modality with respect to NADPH ([1]; IC50 plotted against NADPH concentration): tight-binding uncompetitive inhibition
- inhibition modality with respect to dUMP ([1]; IC50 plotted against dUMP concentration): tight-binding competitive inhibitor
- Ki ([1]; Ki after correcting for total enzyme and dUMP concentration, competitive with respect to dUMP): 0.46 µM
- Ki ([1]; apparent Ki (Morrison equation), with respect to dUMP, uncorrected): 1.5 µM
- Ki (uncompetitive, NADPH) ([1]; with respect to NADPH): 4.45 µM
- inhibition at 20 µM [2]: 78 ± 4%
- Kd [3]: ~0.4 µM
- FAD reduction (nmol) [4]: 0^b nmol
- NADPH oxidation [4]: 0 nmol
- effect of ThyX overexpression on growth inhibition (selectivity factor) ([5]; 50 μg ml−1, with vs without IPTG induction): less-potent growth inhibition

SMILES: O=C1C=C(Br)C(=O)c2c(O)cccc21 [2E04, 2-bromo-8-hydroxy-1,4-naphthoquinone]
- inhibitory effect on human thymidylate synthase [6]: No inhibitory effect
- effect on ThyX activity [7]: specifically decreased the activity
- effect on ThyX activity [8]: specifically decreased the activity
- effect on ThyX activity [9]: specifically decreased the activity
- inhibition at 1.5 µg/mL [10]: 10 to 15%
- growth inhibition after addition of thymidine to the growth medium ([11]; 1.5 μg ml−1, thymidine added): reversed
- inhibition at 1.5 µg/mL ([11]; Escherichia coli, 24 h, read-out: inhibition of bacterial growth): ~80%
- effect of ThyX overexpression on growth inhibition (selectivity factor) ([5]; 1.5 μg ml−1, with vs without IPTG induction): less-potent growth inhibition

SMILES: O=C(CC1=C(O)C(=O)c2ccccc2C1=O)c1cccs1 [H3-C1, 2-hydroxy-3-(2-oxo-2-(thiophen-2-yl)ethyl)-1,4-naphthoquinone]
- IC50 [1, 14]: 7 µM
- inhibition at 20 µM [2]: 38 ± 3%

SMILES: Cc1ccc(C(=O)CC2=C(O)C(=O)c3ccccc3C2=O)cc1 [F3-C1, 2-hydroxy-3-(2-oxo-2-p-tolylethyl)-1,4-naphthoquinone]
- IC50 [1, 14]: 7 µM
- inhibition at 20 µM [2]: 38 ± 7%

SMILES: COc1ccc(C(=O)CC2=C(O)C(=O)c3ccccc3C2=O)cc1 [G3-C1, 2-hydroxy-3-(2-(4-methoxyphenyl)-2-oxoethyl)-1,4-naphthoquinone]
- IC50 [1, 14]: 10 µM
- inhibition at 20 µM [2]: 22 ± 7%

SMILES: O=c1ccn([C@H]2C[C@H](O)[C@@H](COP(=O)(O)O)O2)c(=O)[nH]1 [dUMP, 2′-deoxyuridine-5′-monophosphate, reference compound]
- FAD reduction (nmol) [4]: 8.9^a nmol
- NADPH oxidation [4]: 11.3 nmol
- activating factor of NAD(P)H oxidase activity [12]: > 20
- activating factor of NAD(P)H oxidase activity [13]: 5–7

SMILES: O=C(O)c1ccccc1NC1=CC(=O)c2c(O)cccc2C1=O [B3-C1, 2-(5-hydroxy-1,4-dioxo-1,4-dihydronaphthalen-2-ylamino)benzoic acid]
- IC50 [1, 14]: > 10 µM
- inhibition at 20 µM [2]: 12 ± 6%
